Source: patent US6706663B2, “Herbicidal 3-heterocyclic substituted benzisothiazole and benzisoxazole compounds” (Wyeth, priority 2000, dated 2004)

Key:
GALAP (Galium aparine) = assay: Postemergence herbicidal evaluation; assay type: in vivo
Procedure, shortened: (§1)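 Visual 0–9 injury scores versus control plants, covering stand, vigour, malformation, size, chlorosis and general appearance, taken four to five weeks post-spray and averaged over replicate tests. Plants were sprayed at roughly two weeks old and held on greenhouse benches.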

[1] = test system: CASOB (Cassia obtusifolia); assay: Preemergence herbicidal evaluation; assay type: in vivo, L.; conditions: rated 4-5 weeks after treatment
Procedure, shortened: (§2)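 Rating 0–9, visual, vs control; 4–5 wk after spraying seeded cups with compound in aq. acetone; conventional greenhouse care.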

[2] = test system: CHEAL (Chenopodium album); assay: Preemergence herbicidal evaluation; assay type: in vivo, L.; conditions: rated 4-5 weeks after treatment
Procedure, shortened: as §2

[3] = test system: AMBEL (Ambrosia artemisifolia); assay: Preemergence herbicidal evaluation; assay type: in vivo, L.; conditions: rated 4-5 weeks after treatment
Procedure, shortened: as §2

ORYSAT (Rice, Tebonnet) [4] = assay: Flooded paddy, post-transplant rice tolerance; assay type: in vivo, Oryza sativa, (L.) Tebonnet; conditions: flooded paddy, post-transplant rice, rated 3-4 weeks after treatment, 0-9 rating scale
Procedure, shortened: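 Two ten-day-old seedlings were transplanted into silt loam, flooded and held at 1.5 to 3 cm water above the soil before herbicide treatment. Pots stayed in the greenhouse at that water level. Injury was scored visually on a 0-9 scale versus untreated control.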

[5] = test system: ABUTH (Abutilon theophrasti); assay: Postemergence herbicidal evaluation; assay type: in vivo, Medic.
Procedure, shortened: as §1

[6] = test system: GLXMAW (Soybean, Williams); assay: Postemergence herbicidal evaluation; assay type: in vivo, Glycine max, (L.) Merr. cv Williams
Procedure, shortened: as §1

SETVI (Setaria viridis) [7] = assay: Postemergence herbicidal evaluation; assay type: in vivo, (L.) Beau
Procedure, shortened: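 Visual injury score (0-9: stand, vigor, malformation, size, chlorosis, overall appearance vs untreated control) taken four to five weeks post-spray. Two-week-old seedlings received about 0.0040 to 1.000 kg/ha active compound in acetone/water with 0.5% TWEEN 20.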

[8] = test system: SAGPY (Sagittaria pygmaea); assay: Flooded paddy, preemergence weed control; assay type: in vivo, L.; conditions: rated 3-4 weeks after treatment, 0-9 rating scale
Procedure, shortened: (§3)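 Visual 0–9 ratings versus controls scored stand, vigor, malformation, size, chlorosis and overall appearance. Plants grew from seeds or propagating organs sown 0.5 cm deep in silt loam, with water held 1.5–3 cm above the soil for the whole test under greenhouse care.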

ZEAMX (Corn, Field) = assay: Postemergence herbicidal evaluation; assay type: in vivo, Zea mays, L.
Procedure, shortened: as §1

ORYSAT (Rice, Tebonnet) [9] = assay: Preemergence herbicidal evaluation; assay type: in vivo, Oryza sativa, (L.) Tebonnet; conditions: rated 4-5 weeks after treatment
[10] = test system: ECHCG (Echinochloa crus-galli); assay: Postemergence herbicidal evaluation; assay type: in vivo, (L.) Beau
Procedure, shortened: as §1

ORYSAT (Rice, Tebonnet) [11] = assay: Postemergence herbicidal evaluation; assay type: in vivo, Oryza sativa, (L.) Tebonnet
Procedure, shortened: as §1

SETVI (Setaria viridis) [12] = assay: Preemergence herbicidal evaluation; assay type: in vivo, (L.) Beau; conditions: rated 4-5 weeks after treatment
Procedure, shortened: as §2

[13] = test system: ECHCG (Echinochloa crus-galli); assay: Preemergence herbicidal evaluation; assay type: in vivo, (L.) Beau; conditions: rated 4-5 weeks after treatment
Procedure, shortened: as §2

[14] = test system: ECHORC (Echinochloa oryzoides); assay: Flooded paddy, preemergence weed control; assay type: in vivo, Echinochloa oryzoides (Ard.) Fritsch.; conditions: rated 3-4 weeks after treatment, 0-9 rating scale
Procedure, shortened: as §3

[15] = test system: MOOVA (Monochoria vaginalis); assay: Flooded paddy, preemergence weed control; assay type: in vivo, Presl.; conditions: rated 3-4 weeks after treatment, 0-9 rating scale
Procedure, shortened: as §3

[16] = test system: IPOHE (Ipomoea hederacea); assay: Postemergence herbicidal evaluation; assay type: in vivo, (L.) Jacq.
Procedure, shortened: as §1

CYPIR (Cyperus iria) = assay: Flooded paddy, preemergence weed control; assay type: in vivo; conditions: rated 3-4 weeks after treatment, 0-9 rating scale
Procedure, shortened: as §3

[17] = test system: IPOHE (Ipomoea hederacea); assay: Preemergence herbicidal evaluation; assay type: in vivo, (L.) Jacq.; conditions: rated 4-5 weeks after treatment

Cn1c(C(F)(F)F)cc(=O)n(-c2ccc3snc(C4OCCO4)c3c2)c1=O [Compound 45, 3-[3-(1,3-dioxolan-2-yl)-1,2-benzisothiazol-5-yl]-1-methyl-6-(trifluoromethyl)uracil]
Postemergence herbicidal rating, GALAP (GALAP (Galium aparine); rate 0.0320 kg/ha): 8.5
Postemergence herbicidal rating, GALAP (GALAP (Galium aparine); rate 0.0620 kg/ha): 9.0
Preemergence herbicidal rating CASOB ([1]; Rate 0.0620 kg/ha): 8.7
Preemergence herbicidal rating CASOB ([1]; Rate 0.1250 kg/ha): 9.0
Preemergence herbicidal rating CASOB ([1]; Rate 0.2500 kg/ha): 9.0
Preemergence herbicidal rating CHEAL ([2]; Rate 0.0620 kg/ha): 9.0
Preemergence herbicidal rating CHEAL ([2]; Rate 0.1250 kg/ha): 9.0
Preemergence herbicidal rating CHEAL ([2]; Rate 0.2500 kg/ha): 9.0
Preemergence herbicidal rating AMBEL ([3]; Rate 0.0620 kg/ha): 9.0
Preemergence herbicidal rating AMBEL ([3]; Rate 0.1250 kg/ha): 9.0
Preemergence herbicidal rating AMBEL ([3]; Rate 0.2500 kg/ha): 9.0
herbicidal rating, ORYSAT (rice tolerance) (ORYSAT (Rice, Tebonnet) [4]; rate 0.0080 kg/ha): 8.5
herbicidal rating, ORYSAT (rice tolerance) (ORYSAT (Rice, Tebonnet) [4]; rate 0.0320 kg/ha): 9.0
herbicidal rating, ORYSAT (rice tolerance) (ORYSAT (Rice, Tebonnet) [4]; rate 0.1250 kg/ha): 9.0
Postemergence herbicidal rating, ABUTH ([5]; rate 0.0320 kg/ha): 9.0
Postemergence herbicidal rating, ABUTH ([5]; rate 0.0620 kg/ha): 9.0
Postemergence herbicidal rating, GLXMAW ([6]; rate 0.0320 kg/ha): 8.8
Postemergence herbicidal rating, GLXMAW ([6]; rate 0.0620 kg/ha): 8.8
Postemergence herbicidal rating, SETVI (SETVI (Setaria viridis) [7]; rate 0.0320 kg/ha): 6.3
Postemergence herbicidal rating, SETVI (SETVI (Setaria viridis) [7]; rate 0.0620 kg/ha): 9.0
herbicidal rating, SAGPY ([8]; rate 0.0080 kg/ha): 7.0
herbicidal rating, SAGPY ([8]; rate 0.0320 kg/ha): 8.0
herbicidal rating, SAGPY ([8]; rate 0.1250 kg/ha): 9.0
Postemergence herbicidal rating, ZEAMX (ZEAMX (Corn, Field); rate 0.0320 kg/ha): 5.5
Postemergence herbicidal rating, ZEAMX (ZEAMX (Corn, Field); rate 0.0620 kg/ha): 6.0
Preemergence herbicidal rating ORYSAT (ORYSAT (Rice, Tebonnet) [9]; Rate 0.0620 kg/ha): 8.7
Preemergence herbicidal rating ORYSAT (ORYSAT (Rice, Tebonnet) [9]; Rate 0.1250 kg/ha): 9.0
Preemergence herbicidal rating ORYSAT (ORYSAT (Rice, Tebonnet) [9]; Rate 0.2500 kg/ha): 9.0
Postemergence herbicidal rating, ECHCG ([10]; rate 0.0320 kg/ha): 2.8
Postemergence herbicidal rating, ECHCG ([10]; rate 0.0620 kg/ha): 4.0
Postemergence herbicidal rating, ORYSAT (ORYSAT (Rice, Tebonnet) [11]; rate 0.0320 kg/ha): 4.3
Postemergence herbicidal rating, ORYSAT (ORYSAT (Rice, Tebonnet) [11]; rate 0.0620 kg/ha): 5.2
Preemergence herbicidal rating SETVI (SETVI (Setaria viridis) [12]; Rate 0.0620 kg/ha): 9.0
Preemergence herbicidal rating SETVI (SETVI (Setaria viridis) [12]; Rate 0.1250 kg/ha): 9.0
Preemergence herbicidal rating SETVI (SETVI (Setaria viridis) [12]; Rate 0.2500 kg/ha): 9.0
Preemergence herbicidal rating ECHCG ([13]; Rate 0.0620 kg/ha): 9.0
Preemergence herbicidal rating ECHCG ([13]; Rate 0.1250 kg/ha): 9.0
Preemergence herbicidal rating ECHCG ([13]; Rate 0.2500 kg/ha): 9.0
herbicidal rating, ECHORC ([14]; rate 0.0080 kg/ha): 3.5
herbicidal rating, ECHORC ([14]; rate 0.0320 kg/ha): 7.3
herbicidal rating, ECHORC ([14]; rate 0.1250 kg/ha): 9.0
herbicidal rating, MOOVA ([15]; rate 0.0080 kg/ha): 4.5
herbicidal rating, MOOVA ([15]; rate 0.0320 kg/ha): 9.0
herbicidal rating, MOOVA ([15]; rate 0.1250 kg/ha): 9.0
Postemergence herbicidal rating, IPOHE ([16]; rate 0.0320 kg/ha): 9.0
Postemergence herbicidal rating, IPOHE ([16]; rate 0.0620 kg/ha): 9.0
herbicidal rating, CYPIR (CYPIR (Cyperus iria); rate 0.0080 kg/ha): 9.0
herbicidal rating, CYPIR (CYPIR (Cyperus iria); rate 0.0320 kg/ha): 9.0
herbicidal rating, CYPIR (CYPIR (Cyperus iria); rate 0.1250 kg/ha): 9.0
Preemergence herbicidal rating IPOHE ([17]; Rate 0.0620 kg/ha): 9.0
Preemergence herbicidal rating IPOHE ([17]; Rate 0.1250 kg/ha): 9.0
Preemergence herbicidal rating IPOHE ([17]; Rate 0.2500 kg/ha): 9.0
